Literature values, collected in US20020103139A1, “Solid self-emulsifying controlled release drug delivery system composition for enhanced delivery of water insoluble phytosterols and other hydrophobic natural compounds for body weight and cholestrol level control” (priority 2000, published 2002).

Tests used:
[1] = treated patients versus placebo
[2] = doses of 700 and 300 mg

Row | Structure (SMILES) | average weight lost more than with placebo [1] [pounds] | difference in cholesterol reduction between doses [2]
1 | CCN[C@@H](C)Cc1cccc(C(F)(F)F)c1 [dexfenfluramine] | 5 | 
2 | CCNC(C)Cc1cccc(C(F)(F)F)c1 (stereo not drawn) [fenfluramine] | 5 | 
3 | CC[C@H](CC[C@@H](C)[C@H]1CC[C@H]2[C@@H]3CC[C@H]4C[C@@H](O)CC[C@]4(C)[C@H]3CC[C@]12C)C(C)C [sitostanol] |  | No significant difference
